Reference: patent publication US20240252535A1, “CELLULAR COMPOSITION FOR TREATMENT OF DISEASES, DISORDERS OR CONDITIONS AND METHOD OF USE” (priority 2020, published 2024)
Where a name gives a salt, the structure may show the parent alone.

Experiments:
Raji cells = test: CAR-T cell killing of luciferase-expressing Raji cells after pretreatment of CAR-T cells with serotonergic agonist; format: cell-based, human; conditions: for enhancement of killing of Raji cells: CD19 CAR-T cells preincubated one hour with 5×10^−5, 1×10^−4 or 2×10^−4 M agonist, washed, co-cultured 4 hours, versus unstimulated CAR-T cells; for level of killing of Raji cells: E:T ratio 3:1, agonist-stimulated CAR-T cells, 1% Triton-X100 control set as 100% killing
Description: Pergolide mesylate and 8-OH-DPAT (Sigma) were each dissolved in dimethyl sulfoxide (DMSO) to 2×10^−2 M. The solutions were subsequently diluted in Basal CAR-T medium (ProMab (Richmond, CA)) supplemented with 10% fetal bovine serum, 100U/mL sodium penicillin G (Rafa, Jerusalem) and 1000U/mL streptomycin (Rafa, Jerusalem), in a serial manner, to the indicated final concentrations. CD19 scFv-4-1BB-CD3ζ CAR-T cells (CAT. PM-CAR1002-1M) purchased from ProMab (Richmond, CA) were incubated with the diluted pergolide mesylate or 8-OH-DPAT for one hour, at 37° C. and 5% C02. The cells were pelleted by centrifugation and washed with regular cell growth medium to remove pergolide mesylate and 8-OH-DPAT prior to co-culture with target luciferase Raji cells.
Luciferase Raji cells stably expressing luciferase (Raji/NF-kB Reporter (Luc) stable cell line Cat. CL-1280) were purchased from FenicsBio (Halethorpe, MD) and grown in RPMI medium (Gibco Cat. 21875-034) supplemented with 10% fetal bovine serum, 100U/mL sodium penicillin G (Rafa, Jerusalem) and 1000 U/mL streptomycin (Rafa, Jerusalem), at 37° C. and 5% C02.
Target 2.5×10^3 Raji-luc cells were cultured, at 37° C. and 5% CO2, in each well of 96-well plates, either in medium, medium containing 1% Triton-X100 (Sigma), or with effector CAR-T cells, at an effector:target cell ratio of 0.5:1, 1:1, or 3:1 for 4 hours. Four replicate wells were prepared for each type of sample. Following the incubation period, the cells were incubated with 50 μL of reconstituted reagent (Bright-Glo Luciferase Assay System, E2620) for 2 min to detect the fluorescence intensity (FLUOstar OMEGA). The fluorescence intensity of the 1% Triton-X100 control was set as 100% killing.

5-HT2A = 5-HT2A (Homo sapiens, UniProt P28223); conditions: cited from earlier work
5-HT2A, sequence (P28223 whole entry): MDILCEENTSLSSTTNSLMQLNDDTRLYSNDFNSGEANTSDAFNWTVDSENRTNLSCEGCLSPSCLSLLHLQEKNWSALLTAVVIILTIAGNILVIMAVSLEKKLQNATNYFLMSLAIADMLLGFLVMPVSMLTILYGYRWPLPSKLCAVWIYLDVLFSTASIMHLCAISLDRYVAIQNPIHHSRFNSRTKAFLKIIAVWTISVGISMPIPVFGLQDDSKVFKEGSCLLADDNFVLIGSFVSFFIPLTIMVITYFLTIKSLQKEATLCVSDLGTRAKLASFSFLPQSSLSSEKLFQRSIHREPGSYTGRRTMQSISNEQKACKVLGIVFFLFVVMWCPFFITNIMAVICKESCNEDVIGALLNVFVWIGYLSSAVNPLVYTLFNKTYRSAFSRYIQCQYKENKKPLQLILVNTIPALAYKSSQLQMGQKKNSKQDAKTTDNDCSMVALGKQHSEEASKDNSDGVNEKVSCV

5-HT1A receptors = biological target: T1, 5-HT1A receptors (Homo sapiens, UniProt P08908); conditions: cited from earlier work
T1 sequence (P08908 1-422): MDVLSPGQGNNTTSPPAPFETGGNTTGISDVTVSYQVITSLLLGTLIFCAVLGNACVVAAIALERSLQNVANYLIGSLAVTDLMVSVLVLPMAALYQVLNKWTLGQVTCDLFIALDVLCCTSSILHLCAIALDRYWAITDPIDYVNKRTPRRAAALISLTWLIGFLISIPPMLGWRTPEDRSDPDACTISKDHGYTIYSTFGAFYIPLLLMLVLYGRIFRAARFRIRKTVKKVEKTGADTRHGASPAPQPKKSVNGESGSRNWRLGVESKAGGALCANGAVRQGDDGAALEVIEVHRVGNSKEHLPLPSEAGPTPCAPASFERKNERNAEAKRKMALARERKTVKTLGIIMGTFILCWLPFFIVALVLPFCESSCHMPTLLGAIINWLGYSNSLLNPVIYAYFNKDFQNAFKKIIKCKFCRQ

ovarian cancer = conditions: administration to tumor-bearing mice; cited from earlier work

SMILES	enhancement of killing of Raji cells (Raji cells)	level of killing of Raji cells (Raji cells)	time to disease progression (ovarian cancer)	tumor weight (ovarian cancer)	further results
CCCN(CCC)C1CCc2cccc(O)c2C1 (stereo not shown) [8-OH-DPAT, 8-hydroxy-2-(di-n-propylamino)tetralin]	2-3 fold	approximately 100%	–	–	–
CCCN1C[C@H](CSC)C[C@@H]2c3cccc4[nH]cc(c34)C[C@H]21 [pergolide mesylate]	2-3 fold	approximately 100%	–	–	–
CN(C)CCc1c[nH]c2cccc(OP(=O)(O)O)c12 [psilocybin]	–	–	–	–	Ki (5-HT2A): 0.006 µM; Ki (5-HT1A receptors): 0.19 µM
NCCc1c[nH]c2ccc(O)cc12 [serotonin, 5-hydroxytryptamine]	–	–	decreased	increased	–
CN[C@H]1CC[C@@H](c2ccc(Cl)c(Cl)c2)c2ccccc21 [sertraline]	–	–	decreased	increased	–
